Experimental data as given in PubChem BioAssay AID328 (DTP/NCI, 2004).
Several values for one entry are separate records, joined by “and”; a condition that tells them apart may be missing. Equal entries are not always repeated. Toxic doses and inconclusive results are not listed.

System: BDF1 mice, P388 leukemia ip, median survival T/C
Assay: NCI In Vivo Anticancer Drug Screen. Data for tumor model P388 Leukemia (intraperitoneal) in B6D2F1 (BDF1) mice
Details: endpoint: median survival time, higher = longer survival
Summary of the method: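 Survival ratio, drug arm over vehicle arm, in mice with a transplanted tumour.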

[1] = dose: 25.0 mg/kg/injection, schedule: Q01DX009 (ip), vehicle: saline
[2] = dose: 25.0 mg/kg/injection, schedule: Q04DX003 (ip), vehicle: saline
[3] = dose: 50.0 mg/kg/injection, schedule: Q01DX009 (ip), vehicle: saline
[4] = dose: 50.0 mg/kg/injection, schedule: Q04DX003 (ip), vehicle: saline
[5] = dose: 100.0 mg/kg/injection, schedule: Q01DX009 (ip), vehicle: saline
[6] = dose: 100.0 mg/kg/injection, schedule: Q04DX003 (ip), vehicle: saline
[7] = dose: 50.0 mg/kg/injection, schedule: Q01DX009 (ip), vehicle: Klucel (hydroxypropylcellulose) (HPC)
[8] = dose: 100.0 mg/kg/injection, schedule: Q01DX009 (ip), vehicle: Klucel (hydroxypropylcellulose) (HPC)
[9] = dose: 200.0 mg/kg/injection, schedule: Q01DX009 (ip), vehicle: Klucel (hydroxypropylcellulose) (HPC)
[10] = dose: 100.0 mg/kg/injection, schedule: Q01DX009 (ip), vehicle: other
[11] = dose: 150.0 mg/kg/injection, schedule: Q01DX009 (ip), vehicle: saline
[12] = dose: 100.0 mg/kg/injection, schedule: Q04DX003 (ip), vehicle: Klucel (hydroxypropylcellulose) (HPC)
[13] = dose: 200.0 mg/kg/injection, schedule: Q04DX003 (ip), vehicle: Klucel (hydroxypropylcellulose) (HPC)
[14] = dose: 400.0 mg/kg/injection, schedule: Q04DX003 (ip), vehicle: Klucel (hydroxypropylcellulose) (HPC)
[15] = dose: 12.5 mg/kg/injection, schedule: Q01DX009 (ip), vehicle: Klucel (hydroxypropylcellulose) (HPC)
[16] = dose: 25.0 mg/kg/injection, schedule: Q01DX009 (ip), vehicle: Klucel (hydroxypropylcellulose) (HPC)
[17] = dose: 50.0 mg/kg/injection, schedule: Q01DX009 (ip), vehicle: saline with Tween-80
[18] = dose: 100.0 mg/kg/injection, schedule: Q01DX009 (ip), vehicle: saline with Tween-80

## C(/C=C\c1ccccc1)=Nc1ccccc1
[1]
  T/C: 91 % of control
[2]
  T/C: 95 % of control
[3]
  T/C: 95 % of control
[4]
  T/C: 100 % of control
dose: 88.0 mg/kg/injection, schedule: Q01DX009 (ip), vehicle: saline with Tween-80
  T/C: 105 % of control
[5]
  T/C: 104 % of control
dose: 100.0 mg/kg/injection, schedule: Q04DX003 (ip), vehicle: saline with Tween-80
  T/C: 104 % of control
[6]
  T/C: 100 % of control
dose: 132.0 mg/kg/injection, schedule: Q01DX009 (ip), vehicle: saline with Tween-80
  T/C: 110 % of control
dose: 200.0 mg/kg/injection, schedule: Q04DX003 (ip), vehicle: saline with Tween-80
  T/C: 118 % of control
dose: 300.0 mg/kg/injection, schedule: Q01DX009 (ip), vehicle: saline with Tween-80
  T/C: 110 % of control
dose: 400.0 mg/kg/injection, schedule: Q01DX009 (ip), vehicle: saline with Tween-80
  T/C: 150 % of control
dose: 400.0 mg/kg/injection, schedule: Q04DX003 (ip), vehicle: saline with Tween-80
  T/C: 118 % of control

## C=C(NC(=O)C(=C)NC(=O)c1csc(C2=NC3c4csc(n4)C4NC(=O)c5csc(n5)C(C(C)(O)C(C)O)NC(=O)C5CSC(=N5)/C(=C/C)NC(=O)C(C(C)O)NC(=O)c5csc(n5)C3(CC2)NC(=O)C(C)NC(=O)C(=C)NC(=O)C(C)NC(=O)C(C(C)CC)NC2C=Cc3c(C(C)O)cc(nc3C2O)C(=O)OC4C)n1)C(N)=O (configuration not stated)
dose: 18.75 mg/kg/injection, schedule: Q01DX009 (ip), vehicle: Klucel (hydroxypropylcellulose) (HPC)
  T/C: 112 % of control
dose: 37.5 mg/kg/injection, schedule: Q01DX009 (ip), vehicle: Klucel (hydroxypropylcellulose) (HPC)
  T/C: 114 % of control
[7]
  T/C: 158 % of control
dose: 75.0 mg/kg/injection, schedule: Q01DX009 (ip), vehicle: Klucel (hydroxypropylcellulose) (HPC)
  T/C: 114 % of control
[8]
  T/C: 155 % of control and 163 % of control
[9]
  T/C: 156 % of control and 165 % of control and 182 % of control
dose: 300.0 mg/kg/injection, schedule: Q01DX009 (ip), vehicle: Klucel (hydroxypropylcellulose) (HPC)
  T/C: 114 % of control

## CSc1ccccc1C(C)(C)O
dose: 50.0 mg/kg/injection, schedule: Q01DX009 (ip), vehicle: other
  T/C: 100 % of control
[10]
  T/C: 104 % of control
dose: 200.0 mg/kg/injection, schedule: Q01DX009 (ip), vehicle: other
  T/C: 113 % of control

## Cc1cc([N+](=O)[O-])cc([N+](=O)[O-])c1OC(=O)c1ccc(N=C(N)N)cc1
[1]
  T/C: 110 % of control
[3]
  T/C: 110 % of control
[4]
  T/C: 109 % of control
[5]
  T/C: 110 % of control
[6]
  T/C: 100 % of control
[11]
  T/C: 110 % of control
dose: 200.0 mg/kg/injection, schedule: Q04DX003 (ip), vehicle: saline
  T/C: 90 % of control

## CN(C)c1ccc(Cc2ccc(N(C)C)nc2)cn1
[8]
  T/C: 100 % of control
[12]
  T/C: 95 % of control
[9]
  T/C: 110 % of control
[13]
  T/C: 100 % of control
dose: 400.0 mg/kg/injection, schedule: Q01DX009 (ip), vehicle: Klucel (hydroxypropylcellulose) (HPC)
  T/C: 100 % of control
[14]
  T/C: 95 % of control

## C[C@]12CCC(=O)C=C1CC[C@@H]1[C@@H]2[C@@H](O)C[C@@]2(C)[C@H]1CC[C@]2(O)C(=O)COC(=O)CCC1CCCC1
[15]
  T/C: 118 % of control
[16]
  T/C: 113 % of control
[7]
  T/C: 100 % of control
[12]
  T/C: 123 % of control
[13]
  T/C: 109 % of control
[14]
  T/C: 109 % of control

## COc1cccc2c1C(=O)CC2
[16]
  T/C: 100 % of control
[7]
  T/C: 100 % of control
dose: 75.0 mg/kg/injection, schedule: Q04DX003 (ip), vehicle: Klucel (hydroxypropylcellulose) (HPC)
  T/C: 100 % of control
[8]
  T/C: 96 % of control
dose: 150.0 mg/kg/injection, schedule: Q04DX003 (ip), vehicle: Klucel (hydroxypropylcellulose) (HPC)
  T/C: 95 % of control

## CC(=O)Nc1ccc2c(c1)Cc1cc(NC=O)ccc1-2
dose: 0.75 mg/kg/injection, schedule: Q01DX009 (ip), vehicle: Klucel (hydroxypropylcellulose) (HPC)
  T/C: 89 % of control
dose: 3.0 mg/kg/injection, schedule: Q01DX009 (ip), vehicle: Klucel (hydroxypropylcellulose) (HPC)
  T/C: 92 % of control
[15]
  T/C: 96 % of control
[8]
  T/C: 91 % of control
[12]
  T/C: 87 % of control

## CN1C(=O)C(=O)c2ccccc21
[17]
  T/C: 94 % of control
[18]
  T/C: 97 % of control
dose: 200.0 mg/kg/injection, schedule: Q01DX009 (ip), vehicle: saline with Tween-80
  T/C: 93 % of control

## COC(=O)c1cc(C)c(Br)c(OC)c1
dose: 12.0 mg/kg/injection, schedule: Q01DX009 (ip), vehicle: Klucel (hydroxypropylcellulose) (HPC)
  T/C: 95 % of control
[16]
  T/C: 90 % of control
[7]
  T/C: 90 % of control

## O=C(O)C1(O)CC(O)C(O)C(O)C1 (configuration not stated)
dose: 100.0 mg/kg/injection, schedule: Q04DX002 (ip), vehicle: saline with Tween-80
  T/C: 96 % of control
dose: 200.0 mg/kg/injection, schedule: Q04DX002 (ip), vehicle: saline with Tween-80
  T/C: 94 % of control
dose: 400.0 mg/kg/injection, schedule: Q04DX002 (ip), vehicle: saline with Tween-80
  T/C: 86 % of control

## CC1=CC(=O)c2c(O)cc(C)c(C(=O)C(Cl)Cl)c2C1=O
dose: 10.0 mg/kg/injection, schedule: Q01DX009 (ip), vehicle: Klucel (hydroxypropylcellulose) (HPC)
  T/C: 112 % of control
dose: 20.0 mg/kg/injection, schedule: Q01DX009 (ip), vehicle: Klucel (hydroxypropylcellulose) (HPC)
  T/C: 112 % of control

## CS(=O)(=O)Nc1ccc(NS(C)(=O)=O)cc1
dose: 100.0 mg/kg/injection, schedule: Q01DX001 (ip), vehicle: saline with Tween-80
  T/C: 112 % of control
dose: 200.0 mg/kg/injection, schedule: Q01DX001 (ip), vehicle: saline with Tween-80
  T/C: 100 % of control
dose: 400.0 mg/kg/injection, schedule: Q01DX001 (ip), vehicle: saline with Tween-80
  T/C: 100 % of control

## CCOC(=O)N1CCN(CCCCCOc2ccccc2C2CCCCC2)CC1
[17]
  T/C: 111 % of control
[18]
  T/C: 120 % of control

## CC(=O)CC(OC(=O)c1cc([N+](=O)[O-])cc([N+](=O)[O-])c1)(C(F)(F)F)C(F)(F)F
dose: 6.25 mg/kg/injection, schedule: Q01DX009 (ip), vehicle: saline with Tween-80
  T/C: 100 % of control
dose: 12.5 mg/kg/injection, schedule: Q01DX009 (ip), vehicle: saline with Tween-80
  T/C: 118 % of control
dose: 25.0 mg/kg/injection, schedule: Q01DX009 (ip), vehicle: saline with Tween-80
  T/C: 118 % of control

## CC(=O)OCC(=O)[C@@]1(O)CC[C@H]2[C@@H]3C[C@H](F)C4=CC(=O)CC[C@]4(C)[C@H]3C(=O)C[C@@]21C
[10]
  T/C: 100 % of control

## O=C(CBr)c1cccc(OC(=O)c2ccccc2)c1
dose: 25.0 mg/kg/injection, schedule: Q04DX003 (ip), vehicle: Klucel (hydroxypropylcellulose) (HPC)
  T/C: 96 % of control
dose: 50.0 mg/kg/injection, schedule: Q04DX003 (ip), vehicle: Klucel (hydroxypropylcellulose) (HPC)
  T/C: 88 % of control

## COC1CCC(OC2CC(C3(C)CCC4(CC(O)C(C)C(C(C)/C=C(\C)C(=O)C(C)CC(C)C(=O)O)O4)O3)OC3(OC(C4OC(O)(CO)C(C)CC4C)CC3C)C2C)OC1C (configuration not stated)
dose: 62.5 micrograms/kg/injection, schedule: Q01DX009 (ip), vehicle: Klucel (hydroxypropylcellulose) (HPC)
  T/C: 111 % of control
dose: 125.0 micrograms/kg/injection, schedule: Q01DX009 (ip), vehicle: Klucel (hydroxypropylcellulose) (HPC)
  T/C: 97 % of control
dose: 250.0 micrograms/kg/injection, schedule: Q01DX009 (ip), vehicle: Klucel (hydroxypropylcellulose) (HPC)
  T/C: 97 % of control
dose: 500.0 micrograms/kg/injection, schedule: Q01DX009 (ip), vehicle: Klucel (hydroxypropylcellulose) (HPC)
  T/C: 97 % of control

## COc1ccc(CC[N+]2=Cc3cc(OC)c(OC)cc3CC2)cc1OC
dose: 6.25 mg/kg/injection, schedule: Q01DX009 (ip), vehicle: saline
  T/C: 104 % of control and 111 % of control
dose: 12.5 mg/kg/injection, schedule: Q01DX009 (ip), vehicle: saline
  T/C: 100 % of control
dose: 12.5 mg/kg/injection, schedule: Q04DX003 (ip), vehicle: saline
  T/C: 109 % of control
[1]
  T/C: 100 % of control and 104 % of control
[2]
  T/C: 117 % of control
[3]
  T/C: 95 % of control and 103 % of control and 107 % of control
[4]
  T/C: 101 % of control and 103 % of control
[5]
  T/C: 98 % of control
[11]
  T/C: 95 % of control
